Several values for one entry are separate records, joined by “and”; a condition that tells them apart may be missing. Equal values may be shown once. Where a SMILES comes first, the peptide text is derived from it. [ ]: non-standard residue; d: D form. Hyp = O=C(O)[C@@H]1C[C@@H](O)CN1
Test system: IL-4
Assay: Example 9 Luminex, LPS hPBMCs: IL-4
Assay type: cell-based, human
Protocol: Treatment Human PBMCs were pretreated with YY-101, YDE-011 and YDE-043 or reference compound; Xiidra® at various concentration (ranging from 1 nM to 100 uM) for 2 h before stimulation. An equal volume of 0.5% DMSO was used as a vehicle control. Then, the cells were treated with LPS at 5 ug/ml. The supernatants from treated cells were harvested at 24 h and placed in a 96 well for Luminex cytokine & chemokine profiling using a Luminex 200 multiplex assay (Luminex; R&D system, USA).
The main study arm with triplicate wells per group in a 24-well plate: • 1. Blank • 2. PBMC: 0.5% DMSO • 3. PBMC+LPS (5 ug/ml) • 4. PBMC+YY-101 100 uM • 5. PBMC+YY-101 10 uM • 6. PBMC+YY-101 1 uM • 7. PBMC+YY-101 0.1 uM • 8. PBMC+YY-101 0.01 uM • 9. PBMC+LPS (5 ug/ml)+Xiidra®100 uM • 10. PBMC+LPS (5 ug/ml)+Xiidra® 10 uM • 11. PBMC+LPS (5 ug/ml)+Xiidra® 1 uM • 12. PBMC+LPS (5 ug/ml)+Xiidra®0.1 uM • 13. PBMC+LPS (5 ug/ml)+Xiidra®0.01 uM • 14. PBMC+LPS (5 ug/ml)+Xiidra®0.001 uM • 15. PBMC+LPS (5 ug/ml)+YY-101 100 uM • 16. PBMC+LPS (5 ug/ml)+YY-101 10 uM • 17. PBMC+LPS (5 ug/ml)+YY-101 1 uM • 18. PBMC+LPS (5 ug/ml)+YY-101 0.1 uM • 19. PBMC+LPS (5 ug/ml)+YY-101 0.01 uM • 20. PBMC+LPS (5 ug/ml)+YY-101 0.001 uM • 21. PBMC+LPS (5 ug/ml)+YDE-011 100 uM • 22. PBMC+LPS (5 ug/ml)+YDE-011 10 uM • 23. PBMC+LPS (5 ug/ml)+YDE-011 1 uM • 24. PBMC+LPS (5 ug/ml)+YDE-011 0.1 uM • 25. PBMC+LPS (5 ug/ml)+YDE-011 0.01 uM • 26. PBMC+LPS (5 ug/ml)+YDE-011 0.001 uM • 27. PBMC+LPS (5 ug/ml)+YDE-043 100 uM • 28. PBMC+LPS (5 ug/ml)+YDE-043 10 uM • 29. PBMC+LPS (5 ug/ml)+YDE-043 1 uM • 30. PBMC+LPS (5 ug/ml)+YDE-043 0.1 uM • 31. PBMC+LPS (5 ug/ml)+YDE-043 0.01 uM • 32. PBMC+LPS (5 ug/ml)+YDE-043 0.001 uM
Multiplex assay was used to measure 30 cytokines and chemokines. The 1:2, 1:10 and 1:200 diluted cell supernatant and serial dilution of the standard were dispensed into a 96 well plate at 50 ul/well. Then, the pre-mixed cocktail of antibody-coated magnetic beads was dispensed at 50 ul/well and incubated at room temperature for 2 h in a horizontal orbital microplate shaker at 800±500 rpm. The beads were washed using a magnetic device to prevent loss. The biotin-antibody was dispensed in 50 ul of each well and incubated at room temperature for 1 h in a shaker at 800±500 rpm. After washing, streptavidin-PE was added at 50 ul/well and incubated at room temperature for 30 min in a shaker under the same conditions. Finally, after washing, wash buffer (100 ul/well) was added to the plate and incubated in a shaker for 2 min. The Luminex™ 200 setting were set according to the manufacturer's protocol. The data was calculated with a standard five-parameter logistic nonlinear regression analysis of the data (xPonent software 4.2, USA). The levels of cytokine/chemokine are normalized to the live cell counts (1×10^5 cells/mL) and presented as concentrations per mL (pg/mL or ng/mL).

[1] = PBMC + LPS(5 ug/ml) + test article 0.001 uM, Mean
[2] = PBMC + LPS(5 ug/ml) + test article 0.001 uM, single replicates
[3] = PBMC + LPS(5 ug/ml) + test article 0.01 uM, Mean
[4] = PBMC + LPS(5 ug/ml) + test article 0.01 uM, single replicates
[5] = PBMC + LPS(5 ug/ml) + test article 0.1 uM, Mean
[6] = PBMC + LPS(5 ug/ml) + test article 0.1 uM, single replicates
[7] = PBMC + LPS(5 ug/ml) + test article 1 uM, Mean
[8] = PBMC + LPS(5 ug/ml) + test article 1 uM, single replicates
[9] = PBMC + LPS(5 ug/ml) + test article 10 uM, Mean
[10] = PBMC + LPS(5 ug/ml) + test article 10 uM, single replicates
[11] = PBMC + LPS(5 ug/ml) + test article 100 uM, Mean
[12] = PBMC + LPS(5 ug/ml) + test article 100 uM, single replicates

Compound | Concentration, Bead name: IL-4 [1] [pg/mL] | MFI, Bead name: IL-4 [1] | conc/live cell, Bead name: IL-4 [1] [pg/10^5] | Concentration, Bead name: IL-4 [2] | MFI, Bead name: IL-4 [2] | conc/live cell, Bead name: IL-4 [2] | Concentration, Bead name: IL-4 [3] [pg/mL] | MFI, Bead name: IL-4 [3] | conc/live cell, Bead name: IL-4 [3] [pg/10^5] | Concentration, Bead name: IL-4 [4] | MFI, Bead name: IL-4 [4] | conc/live cell, Bead name: IL-4 [4] | Concentration, Bead name: IL-4 [5] [pg/mL] | MFI, Bead name: IL-4 [5] | conc/live cell, Bead name: IL-4 [5] [pg/10^5] | Concentration, Bead name: IL-4 [6] | MFI, Bead name: IL-4 [6] | conc/live cell, Bead name: IL-4 [6] | Concentration, Bead name: IL-4 [7] [pg/mL] | MFI, Bead name: IL-4 [7] | other results
CC(C)C[C@H](NC(=O)[C@H](CCC(N)=O)NC(=O)CNC(=O)[C@@H]1C[C@@H](O)CN1)C(=O)NCC(=O)O [YDE-043] (H-[Hyp]GQLG-OH; N-terminus and C-terminus assumed) | 26.0 | 1.0 | 5.2 | 26.4 pg/mL and 33.2 pg/mL and 18.4 pg/mL | 1.0 and 2.0 and 0.0 | 6.0 pg/10^5 and 5.5 pg/10^5 and 4.0 pg/10^5 | 11.3 | −0.7 | 2.2 | 7.7 pg/ml (2×) and 18.4 pg/ml | −1.0 (2×) and 0.0 | 1.7 pg/10^5 and 1.2 pg/10^5 and 3.7 pg/10^5 | 17.5 | 0.0 | 3.3 | 26.4 pg/mL and 18.4 pg/mL and 7.7 pg/mL | 1.0 and 0.0 and −1.0 | 5.3 pg/10^5 and 3.3 pg/10^5 and 1.4 pg/10^5 | 26.4 | 0.2 | conc/live cell, Bead name: IL-4 [7]: 3.5 pg/10^5; Concentration, Bead name: IL-4 [8]: 26.4 pg/mL; MFI, Bead name: IL-4 [8]: −1.5 and 1.0 (2×); conc/live cell, Bead name: IL-4 [8]: 0.0 pg/10^5 and 5.5 pg/10^5 and 5.0 pg/10^5; Concentration, Bead name: IL-4 [9]: 14.8 pg/mL; MFI, Bead name: IL-4 [9]: −0.3; conc/live cell, Bead name: IL-4 [9]: 2.7 pg/10^5; Concentration, Bead name: IL-4 [10]: 18.4 pg/ml (2×) and 7.7 pg/ml; MFI, Bead name: IL-4 [10]: 0.0 (2×) and −1.0; conc/live cell, Bead name: IL-4 [10]: 3.5 pg/10^5 and 1.4 pg/10^5 and 3.3 pg/10^5; Concentration, Bead name: IL-4 [11]: 7.7 pg/mL; MFI, Bead name: IL-4 [11]: −1.0; conc/live cell, Bead name: IL-4 [11]: 1.2 pg/10^5; Concentration, Bead name: IL-4 [12]: 7.7 pg/mL; MFI, Bead name: IL-4 [12]: −1.0; conc/live cell, Bead name: IL-4 [12]: 1.2 pg/10^5
CC(C)C[C@H](NC(=O)CNC(=O)[C@H](CC(C)C)NC(=O)[C@H](CCC(N)=O)NC(=O)CNC(=O)[C@@H]1C[C@@H](O)CN1)C(=O)N[C@@H](C)C(=O)NCC(=O)N1CCC[C@H]1C(=O)N[C@@H](CCCCN)C(=O)O [YDE-011] (H-[Hyp]GQLGLAGPK-OH) | 13.2 | −0.5 | 2.6 | 18.4 pg/mL and 7.7 pg/mL and 13.6 pg/mL | 0.0 and −1.0 and −0.5 | 4.1 pg/10^5 and 1.3 pg/10^5 and 2.3 pg/10^5 | 23.7 | 0.7 | 4.1 | 18.4 pg/ml and 26.4 pg/ml (2×) | 0.0 and 1.0 (2×) | 2.9 pg/10^5 and 4.3 pg/10^5 and 5.2 pg/10^5 | 22.4 | −0.3 | 2.5 | 18.4 pg/mL and 26.4 pg/mL | 0.0 and −2.0 and 1.0 | 2.8 pg/10^5 and 0.0 pg/10^5 and 4.6 pg/10^5 | 18.4 | −0.5 | conc/live cell, Bead name: IL-4 [7]: 2.4 pg/10^5; Concentration, Bead name: IL-4 [8]: 18.4 pg/mL; MFI, Bead name: IL-4 [8]: 0.0 (2×) and −1.5; conc/live cell, Bead name: IL-4 [8]: 3.3 pg/10^5 and 0.0 pg/10^5 and 3.8 pg/10^5; Concentration, Bead name: IL-4 [9]: 16.8 pg/mL; MFI, Bead name: IL-4 [9]: −0.2; conc/live cell, Bead name: IL-4 [9]: 3.2 pg/10^5; Concentration, Bead name: IL-4 [10]: 18.4 pg/ml (2×) and 13.6 pg/ml; MFI, Bead name: IL-4 [10]: 0.0 (2×) and −0.5; conc/live cell, Bead name: IL-4 [10]: 3.4 pg/10^5 and 2.3 pg/10^5 and 3.9 pg/10^5; Concentration, Bead name: IL-4 [11]: 7.7 pg/mL; MFI, Bead name: IL-4 [11]: −1.2; conc/live cell, Bead name: IL-4 [11]: 0.8 pg/10^5; Concentration, Bead name: IL-4 [12]: 7.7 pg/mL; MFI, Bead name: IL-4 [12]: −1.0 (2×) and −1.5; conc/live cell, Bead name: IL-4 [12]: 1.3 pg/10^5 (2×) and 0.0 pg/10^5

From patent US20230146455A1, “TREATMENT OF INFLAMMATORY DISEASES WITH PEPTIDES AND PHARMACEUTICAL COMPOSITIONS” (Yuyu Pharma, Inc., priority 2020, published 2023)
